The values that follow come from patent publication US20250143289A1, “BIO-CONTROL COMBINATIONS, COMPOSITIONS AND METHOD OF USE” (DECCO WORLDWIDE POST-HARVEST HOLDINGS B.V., priority 2022, published 2025).

The test system of this test is Penicillium digitatum (Pd). Description: Biocontrol efficacy on post-harvest green mold decay of harvested oranges (online spraying, drying tunnel, storage). It is filed as in vivo. The note with it: online spraying at 2 L/tonne of fruits, dried in drying tunnel, observed 36 days after storage, amounts per treatment as in Table 1.

Protocol: A tank mix bio-control combination was prepared consisting of Candida oleophila strain O and sodium bicarbonate. […] The microbial component was applied as water dispersible granules. The concentration of C. oleophila strain O was 2.33 g/L (0.23% w/v) and the biologically effective amount of the strain was 3×10^10 cfu/gm. The concentration of the C. oleophila strain O used was varying between 0.1 to 5% w/v of the combination.
The biocontrol efficacy of the combination of the present invention on post-harvest fungal disease caused by green mold was evaluated. […] The harvested oranges were treated with the biocontrol combination and then subjected to drying in a drying tunnel. […] The oranges were treated by online spraying of each treatment. The biologically effective amount of Candida oleophila is 3×10^10 cfu/g of the combination. Each application is made at a rate 2 L/tonne of citrus fruits. The observations were made on the treated oranges and the untreated control at 36 days after storage.

Take `O=C([O-])O.[Na+]` [Sodium bicarbonate]: the “% decay on fruits” value was determined as 15%.
